Here are results for 9 molecules from US5624911A, “Ether derivatives of pseudopterosin” (The Regents of the University of California, priority 1995, dated 1997).

In experiment [1] the test system is bovine articular cartilage explants. In words: Inhibition of IL-1-induced Cartilage Degradation in the Presence of Human Plasminogen (35S glycosaminoglycan release). The class given is cell-based, bovine (calf). The following applies: for % Inhibition @ 30 μM (Explant) / IC50: plasminogen 0.4 μM plus IL-1 0.5 ng/mL, 96 hours; for IC50: explant. As to the method:
(§1) The ether derivatives were also tested to determine their usefulness in inhibiting degradation of cartilage. Bovine articular cartilage explants labeled with ^35 Sulfate were used to monitor chondrocyte-mediated cartilage degradation in the presence of plasminogen, at concentrations similar to that measured in synovial fluid (0.4 μM), cartilage is extremely sensitive to the effects of IL-1-stimulated degradation. Stimulated chondrocytes produce and activate plasminogen activator (uPA), causing conversion of plasminogen to plasmin. Plasmin is not only an effective activator of the MMP's, but also an effective proteoglycanase. Inhibitors were added to the assay concomitant with the cytokine IL-1, and their effect was monitored by measuring differences in ^35 S glycosaminoglycan release, as compared to appropriate controls.
(§2) Plasminogen (from human plasma) was obtained from Athens Research and Technology, Athens, Ga. Recombinant Human Interleukin-1-α was obtained from R&D Systems, Minneapolis, Minn. DMEM was obtained from Gibco, Grand Island, New York. ^35 S-Sodium Sulfate was obtained from Amersham, Arlington Heights, Ill.
(§3) Bovine (calf) radiocarpal joints were acquired from a local abbatoir immediately after sacrifice and transported on ice. The joints were then washed thoroughly and placed in ice containing approximately 25% Povidine (10% Povidone-lodine topical solution). The joints were then dissected in a sterile hood using good sterile technique. Media (DMEM containing 4.5 g/L D-Glucose and L-Glutamine, without sodium pyruvate) was supplemented with HEPES buffer and sodium bicarbonate, and the pH adjusted to 7.4. The media was further supplemented with penicillin and streptomycin (100 units/mL and 100 μg/ml, respectively) and 50 μg/mL L-ascorbic acid. The cartilage surfaces were exposed, and the synovial fluid was wiped away with sterile gauze. A sterile cork-borer with a diameter of 3.5 millimeters was used to remove uniform plugs of cartilage. Proper orientation was maintained by distinguishing the underlying bony layer in the plugs (only the articulating surface of the cartilage plugs were used in the experiments). The plugs were placed in a sterile flask, washed four times with 50 mL of fresh media, and then placed in an incubator (37 degrees centigrade, with 5% CO2 /95% air, with adequate humidity) and allowed to equilibrate for 1 hour. A 1 mm thick slice of the articulating surface was sliced off of each individual cartilage plug, using a specially designed template to obtain uniform thickness. The cartilage disks were then labeled en mass with ^35 Sulfate at a concentration of approximately 10 μCi/mL for approximately 72-96 hours, with hand-stirring every few hours. Subsequent to labeling, explants were equilibrated with fresh media each 48 hours. The total time for labeling/equilibration was approximately one week from acquisition/dissection of tissue.
(§4) For testing of ether derivatives, individual explants were transferred to 96-well plates containing 250μL of media with or without Plasminogen plus IL-1, and with or without ether derivative. […] All other groups in any assay would contain ether derivative along with concomitant plasminogen plus IL-1. Five samples were routinely used, with concentrations of plasminogen plus IL-1 of 0.4 μM and 0.5 ng/mL, respectively. The assay is allowed to incubate for 96 hours, prior to counting a 50 μL sample of supernatant from each well. A 50 μL sample of a papain digest of each explant is also counted for each respective well. From the counts released into the supernatant over four days, and the total counts present, the data can be expressed as % glycosaminoglycan (GAG) over the four days). The media alone % GAG release values are subtracted from all other values where plasminogen plus IL-1 were present (media alone represents the background for the system). […]

In experiment [2] the test system is edema induced by phorbol 12-myristate 13-acetate (PMA) in ears of mice. In words: Mouse Ear Edema Assay (PMA-induced edema, topical). The following applies: for % Inhibition (of edema relative to PMA control) / Mean Edema (mgs ± SEM): topical, 50 μg/ear with PMA 2 μg/ear, 3 hours 20 minutes; for Mean Edema (mgs ± SEM): PMA controls 17.7 ± 0.6. The class given is in vivo. As to the method:
The pseudopterosin ethers were topically applied in acetone to the inside pinnae of the ears of mice in a solution containing the edema-causing irritant, phorbol 12-myristate 13-acetate (PMA). PMA alone (2 μg/ear) or in combination with 50 μg/ear of test compound was applied to the left ears (5 mice per treatment group) and acetone is applied to all right ears. After 3 hours 20 minutes incubation, the mice were sacrificed, the ears removed, and bores taken and weighed. Edema was measured by subtracting the weight of the right ear (acetone control) from the weight of the left ear (treated). Results were recorded as percent decrease (inhibition) or percent increase (potentiation) in edema relative to the PMA control group edema.

The test system of experiment [3] is bovine articular cartilage explants. Description: Interleukin-1 mediated cartilage degradation, with or without plasminogen (35S-GAG release). In kind it is cell-based, bovine (calf). The following applies: for degradation by plasminogen alone (in words): 0.4 μM human plasminogen alone. As to the method:
as §1, §2, §3, §4

The term IC50 denotes the concentration needed to halve the response being measured.

Like-named read-outs stand apart in the source and are kept apart here.

In the case of `CC(C)=C[C@H]1C[C@H](C)[C@H]2CC[C@H](C)c3c(O[C@@H]4OC[C@@H](O)[C@H](O)[C@H]4O)c(OCc4ccccc4)c(C)c1c32` [WF 332, Pseudopterosin A Benzyl ether], the “% Inhibition @ 30 μM (Explant)” value in experiment [1] was 57%. Also, the IC50 in experiment [1] (Bos taurus, read-out: IC50) is 26 µM. Further, in experiment [2], the “% Inhibition (of edema relative to PMA control)” value is given as 68.3% and the “Mean Edema (mgs ± SEM)” value was 5.6 ± 1.0 mgs.
In the case of `CCCCCOc1c(C)c2c3c(c1O[C@@H]1OC[C@@H](O)[C@H](O)[C@H]1O)[C@@H](C)CC[C@@H]3[C@@H](C)C[C@@H]2C=C(C)C` [WF 333, Pseudopterosin A Pentyl ether], in experiment [1], the “% Inhibition @ 30 μM (Explant)” value was found to be 58%. Further, the concentration for half-maximal inhibition (IC50) in experiment [1] (Bos taurus, read-out: IC50) is above 40 µM. In experiment [2], the “% Inhibition (of edema relative to PMA control)” value came out at 62.2% and the “Mean Edema (mgs ± SEM)” value came to 6.7 ± 1.0 mgs.
On to `CCCCCCCCCCOc1c(C)c2c3c(c1O[C@@H]1OC[C@@H](O)[C@H](O)[C@H]1O)[C@@H](C)CC[C@@H]3[C@@H](C)C[C@@H]2C=C(C)C` [WF 334, Pseudopterosin A Decanyl ether], for which, in experiment [1], the “% Inhibition @ 30 μM (Explant)” value was “Inconclusive” and the IC50 result is recorded as “Inconclusive”. In addition, in experiment [2], the “% Inhibition (of edema relative to PMA control)” value stood at 60.7% and the “Mean Edema (mgs ± SEM)” value is recorded as 7.0 ± 0.9 mgs.
For the molecule `CCCCCCCCCCCCCCCCCCOc1c(C)c2c3c(c1O[C@@H]1OC[C@@H](O)[C@H](O)[C@H]1O)[C@@H](C)CC[C@@H]3[C@@H](C)C[C@@H]2C=C(C)C` [WF 335, Pseudopterosin A Octadecanyl ether], in experiment [1], the “% Inhibition @ 30 μM (Explant)” value is on record as 27%. Moreover, the IC50 in experiment [1] (Bos taurus, read-out: IC50) was above 30 µM. In experiment [2], the “% Inhibition (of edema relative to PMA control)” value came out at 54.4% and the “Mean Edema (mgs ± SEM)” value turned out to be 8.0 ± 1.2 mgs.
On to `CC(C)=C[C@H]1C[C@H](C)[C@H]2CC[C@H](C)c3c(O[C@@H]4OC[C@@H](O)[C@H](O)[C@H]4O)c(OCCCCO)c(C)c1c32` [WF 336, Pseudopterosin A Butanol ether], for which the “% Inhibition @ 30 μM (Explant)” value in experiment [1] stood at 73%. Moreover, in experiment [1] (Bos taurus, read-out: IC50), the IC50 came to 19 µM. Further, in experiment [2], the “% Inhibition (of edema relative to PMA control)” value amounted to 69.9% and the “Mean Edema (mgs ± SEM)” value was 5.3 ± 0.9 mgs.
As to `CC(C)=C[C@H]1C[C@H](C)[C@H]2CC[C@H](C)c3c(O[C@@H]4OC[C@@H](O)[C@H](O)[C@H]4O)c(OCC(N)=O)c(C)c1c32` [WF 337, Pseudopterosin A Acetamide ether], the “% Inhibition @ 30 μM (Explant)” value in experiment [1] is listed as 74%. For the same molecule, the half-inhibitory concentration (IC50) in experiment [1] (Bos taurus, read-out: IC50) stood at 15 µM. Besides, in experiment [2], the “% Inhibition (of edema relative to PMA control)” value is 52.6% and the “Mean Edema (mgs ± SEM)” value turned out to be 8.4 ± 1.4 mgs.
Regarding “bis pseudopterosin A pentanyl diether [WF 338]”, the “% Inhibition @ 30 μM (Explant)” value in experiment [1] amounted to 0%. Besides, the “inhibition of explant degradation (in words)” value in experiment [1] (as can be seen from TABLE 2) is recorded as “inhibited explant degradation, except for WF 338”. Moreover, the IC50 in experiment [1] (read-out: IC50) was above 30 µM. In experiment [2] (mouse ear edema, comparison compound), the “anti-inflammatory activity (in words)” value was “little if any anti-inflammatory activity”. Further, in experiment [2], the “% Inhibition (of edema relative to PMA control)” value is 6.7% and the “Mean Edema (mgs ± SEM)” value worked out at 16.5 ± 1.2 mgs.

B1: human plasminogen: Plasminogen (from human plasma) was obtained from Athens Research and Technology, Athens, Ga. (protein, UniProt P00747 20-810, looked up)
Plasminogen: EPLDDYVNTQGASLFSVTKKQLGAGSIEECAAKCEEDEEFTCRAFQYHSKEQQCVIMAENRKSSIIIRMRDVVLFEKKVYLSECKTGNGKNYRGTMSKTKNGITCQKWSSTSPHRPRFSPATHPSEGLEENYCRNPDNDPQGPWCYTTDPEKRYDYCDILECEEECMHCSGENYDGKISKTMSGLECQAWDSQSPHAHGYIPSKFPNKNLKKNYCRNPDRELRPWCFTTDPNKRWELCDIPRCTTPPPSSGPTYQCLKGTGENYRGNVAVTVSGHTCQHWSAQTPHTHNRTPENFPCKNLDENYCRNPDGKRAPWCHTTNSQVRWEYCKIPSCDSSPVSTEQLAPTAPPELTPVVQDCYHGDGQSYRGTSSTTTTGKKCQSWSSMTPHRHQKTPENYPNAGLTMNYCRNPDADKGPWCFTTDPSVRWEYCNLKKCSGTEASVVAPPPVVLLPDVETPSEEDCMFGNGKGYRGKRATTVTGTPCQDWAAQEPHRHSIFTPETNPRAGLEKNYCRNPDGDVGGPWCYTTNPRKLYDYCDVPQCAAPSFDCGKPQVEPKKCPGRVVGGCVAHPHSWPWQVSLRTRFGMHFCGGTLISPEWVLTAAHCLEKSPRPSSYKVILGAHQEVNLEPHVQEIEVSRLFLEPTRKDIALLKLSSPAVITDKVIPACLPSPNYVVADRTECFITGWGETQGTFGAGLLKEAQLPVIENKVCNRYEFLNGRVQSTELCAGHLAGGTDSCQGDSGGPLVCFEKDKYILQGVTSWGLGCARPNKPGVYVRVSRFVTWIEGVMRNN
In the case of B1, the entries for the “degradation by plasminogen alone (in words)” value in experiment [3] and in experiment [3] (listed as plasminogen) were “does not induce any degradation above control levels” and “same results as media alone”, respectively.

B2: IL-1-α: Recombinant Human Interleukin-1-α was obtained from R&D Systems, Minneapolis, Minn. (protein, UniProt P01583 113-271, looked up)
Interleukin-1 alpha: SAPFSFLSNVKYNFMRIIKYEFILNDALNQSIIRANDQYLTAAALHNLDEAVKFDMGAYKSSKDDAKITVILRISKTQLYVTAQDEDQPVLLKEMPEIPKTITGSETNLLFFWETHGTKNYFTSVAHPNLFIATKQDYWVCLAGGPPSITDFQILENQA
With B2, the 35S-GAG release result in experiment [3] (IL-1-α 0.4 ng/mL plus plasminogen 0.4 μM, four day assay) is reported as “approximately 50%”. Further, in experiment [3] (IL-1-α 1 ng/mL plus 0.5 μM plasminogen), the GAG release result was “greater than 90%”. Also, in experiment [3] (IL-1-α 2.5 ng/mL, without plasminogen), the “increase in degradation over control” value is “two-fold increase”. Further, the “release of 35S-labeled GAG” value in experiment [3] (IL-1-α 10 ng/mL, without plasminogen) is around 35%. Also, the “dose dependence of degradation (in words)” value in experiment [3] (IL-1-α, without plasminogen) is given as “induces degradation in bovine articular cartilage explants in a dose-dependent manner”.
